Biological target: T1, hNPY1R (Homo sapiens, UniProt P25929)
T1 construct: SK-N-MC cells endogenously expressing the NPY1R receptor; endogenous in cells; host or cells: SK-N-MC cells (crude membrane fractions)
T1 sequence (P25929 1-384): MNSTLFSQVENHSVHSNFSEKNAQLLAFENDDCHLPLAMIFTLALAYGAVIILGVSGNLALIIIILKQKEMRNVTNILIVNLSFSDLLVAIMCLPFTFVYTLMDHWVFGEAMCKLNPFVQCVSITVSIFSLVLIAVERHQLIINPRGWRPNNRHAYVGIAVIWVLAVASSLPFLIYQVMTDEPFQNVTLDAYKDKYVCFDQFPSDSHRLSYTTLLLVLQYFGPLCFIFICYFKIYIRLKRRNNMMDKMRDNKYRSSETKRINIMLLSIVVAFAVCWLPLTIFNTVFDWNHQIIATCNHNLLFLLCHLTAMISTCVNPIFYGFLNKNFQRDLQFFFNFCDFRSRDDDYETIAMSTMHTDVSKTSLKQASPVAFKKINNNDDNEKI
Test: NPY1R binding assay: SK-N-MC membranes, [125I]-Peptide YY (human) competition
Settings: data obtained after 60 minutes at 37° C.; SK-N-MC membranes; [125I]-Peptide YY 0.05 nM; read-out: hNPY1R binding Ki* †

First: CCC(=O)NCCNC(=O)/N=C(/N)NCCC[C@@H](NC(=O)C(c1ccccc1)c1ccc(NCCCNC(=O)CCOCCOCCNC(=O)CN2CCN(CC(=O)O)CCN(CC(=O)O)CCN(CC(=O)O)CC2)cc1)C(=O)NCc1ccc(O)cc1 (single isomer, unassigned) [Compound 103A]
Second: CCC(=O)NCCNC(=O)/N=C(/N)NCCC[C@@H](NC(=O)C(c1ccccc1)c1cccc(OCCCCNc2c(NCCNC(=O)CN3CCN(CC(=O)O)CCN(CC(=O)O)CCN(CC(=O)O)CC3)c(=O)c2=O)c1)C(=O)NCc1ccc(O)cc1 (single isomer, unassigned) [Compound 111B]
The Ki of the first is higher: 10 to 100 nM for the first, < 10 nM for the second.

CCC(=O)NCCNC(=O)/N=C(/N)NCCC[C@@H](NC(=O)C(c1ccccc1)c1cccc(OCCCCNC(=O)CNC(=O)[C@@H](CC(N)=O)NC(=O)CN2CCN(CC(=O)O)CCN(CC(=O)O)CCN(CC(=O)O)CC2)c1)C(=O)NCc1ccc(O)cc1 (single isomer, unassigned) [Compound 112B] and CCC(=O)NCCNC(=O)/N=C(/N)NCCC[C@@H](NC(=O)C(c1ccccc1)c1cccc(OCCCCNC(=O)CN2CCN(C(=O)CN3CCN(CC(=O)O)CCN(CC(=O)O)CCN(CC(=O)O)CC3)CC2)c1)C(=O)NCc1ccc(O)cc1 (single isomer, unassigned) [Compound 118A] cannot be ordered by Ki: < 10 nM for the first, < 10 nM for the second.

For CCC(=O)NCCNC(=O)/N=C(/N)NCCC[C@@H](NC(=O)C(c1ccccc1)c1cccc(OCCCCNC(=O)CCC(=O)N(CC(=O)O)C2CCN(C(=O)CN3CCN(CC(=O)O)CCN(CC(=O)O)CCN(CC(=O)O)CC3)CC2)c1)C(=O)NCc1ccc(O)cc1 (single isomer, unassigned) [Compound 117A], the Ki was 10 to 100 nM.

Same assay, conditions: data obtained after 120 minutes at rt; SK-N-MC membranes; [125I]-Peptide YY; read-out: hNPY.R binding Ki* ††

CCC(=O)NCCNC(=O)/N=C(/N)NCCC[C@@H](NC(=O)C(c1ccccc1)c1cccc(OCCCCNC(=O)[C@@H](CCCN)NC(=O)CCNC(=O)CN2CCN(CC(=O)O)CCN(CC(=O)O)CCN(CC(=O)O)CC2)c1)C(=O)NCc1ccc(O)cc1 (single isomer, unassigned) [Compound 147B] and CCC(=O)NCCNC(=O)/N=C(/N)NCCC[C@@H](NC(=O)C(c1ccccc1)c1cccc(OCCCCNC(=O)[C@@H](Cc2ccc3ccccc3c2)NC(=O)CCNC(=O)CN2CCN(CC(=O)O)CCN(CC(=O)O)CCN(CC(=O)O)CC2)c1)C(=O)NCc1ccc(O)cc1 (stereo partly drawn) [Compound 150, 2,2′,2″-(10-(2-((3-(((2R)-1-((4-(3-((4R,Z)-9-amino-4-((4-hydroxybenzyl)carbamoyl)-2,11,16-trioxo-1-phenyl-3,8,10,12,15-pentaazaoctadec-9-en-1-yl)phenoxy)butyl)amino)-3-(naphthalen-2-yl)-1-oxopropan-2-yl)amino)-3-oxopropyl)amino)-2-oxoethyl)-1,4,7,10-tetraazacyclododecane-1,4,7-triyl)triacetic acid] cannot be ordered by Ki: < 10 nM for the first, < 10 nM for the second.

Compared with CCC(=O)NCCNC(=O)/N=C(/N)NCCC[C@@H](NC(=O)C(c1ccccc1)c1cccc(NCCCNC(=O)CCOCCNC(=O)CN2CCN(CC(=O)O)CCN(CC(=O)O)CCN(CC(=O)O)CC2)c1)C(=O)NCc1ccc(O)cc1 (single isomer, unassigned) [Compound 121A], CCC(=O)NCCNC(=O)/N=C(/N)NCCC[C@@H](NC(=O)C(c1ccccc1)c1ccc(NCCCNC(=O)NOCCNC(=O)CN2CCN(CC(=O)O)CCN(CC(=O)O)CCN(CC(=O)O)CC2)cc1)C(=O)NCc1ccc(O)cc1 (single isomer, unassigned) [Compound 160] is higher in Ki: < 10 nM for the first, 10 to 100 nM for the second.

CCC(=O)NCCNC(=O)/N=C(/N)NCCC[C@@H](NC(=O)C(c1ccccc1)c1cccc(OCCCCNC(=O)NCCONC(=O)CN2CCN(CC(=O)O)CCN(CC(=O)O)CCN(CC(=O)O)CC2)c1)C(=O)NCc1c(F)cc(O)cc1F (single isomer, unassigned) [Compound 168] and CCC(=O)NCCNC(=O)/N=C(/N)NCCC[C@@H](NC(=O)C(c1ccccc1)c1cccc(OCCCCNC(=O)NNC(=O)CCNC(=O)CN2CCN(CC(=O)O)CCN(CC(=O)O)CCN(CC(=O)O)CC2)c1)C(=O)NCc1c(F)cc(O)cc1F (single isomer, unassigned) [Compound 166] cannot be ordered by Ki: < 10 nM for the first, < 10 nM for the second.

CCC(=O)NCCNC(=O)/N=C(/N)NCCC[C@@H](NC(=O)C(c1ccccc1)c1ccc(NCCCNC(=O)CN2CCC(NC(=O)CN3CCN(CC(=O)O)CCN(CC(=O)O)CCN(CC(=O)O)CC3)CC2)cc1)C(=O)NCc1ccc(O)cc1 (single isomer, unassigned) [Compound 133A] and CCC(=O)NCCNC(=O)/N=C(/N)NCCC[C@@H](NC(=O)C(c1ccccc1)c1ccc(NCCCNC(=O)[C@H](N)CCCNC(=O)CN2CCC(NC(=O)CN3CCN(CC(=O)O)CCN(CC(=O)O)CCN(CC(=O)O)CC3)CC2)cc1)C(=O)NCc1ccc(O)cc1 (single isomer, unassigned) [Compound 146A] cannot be ordered by Ki: < 10 nM for the first, < 10 nM for the second.

CCC(=O)NCCNC(=O)/N=C(/N)NCCC[C@@H](NC(=O)C(c1ccccc1)c1ccc(NCCCNC(=O)[C@H](N)CCCNC(=O)[C@@H](Cc2ccc(-c3ccccc3)cc2)NC(=O)CN2CCN(CC(=O)O)CCN(CC(=O)O)CCN(CC(=O)O)CC2)cc1)C(=O)NCc1ccc(O)cc1 (single isomer, unassigned) [Compound 134A] and CCC(=O)NCCNC(=O)/N=C(/N)NCCC[C@@H](NC(=O)C(c1ccccc1)c1cccc(OCCCCNC(=O)[C@@H](Cc2ccc(-c3ccccc3)cc2)NC(=O)CCNC(=O)CN2CCN(CC(=O)O)CCN(CC(=O)O)CCN(CC(=O)O)CC2)c1)C(=O)NCc1ccc(O)cc1 (stereo partly drawn) [Compound 149, 2,2′,2″-(10-(2-((3-(((2R)-3-([1,1′-biphenyl]-4-yl)-1-((4-(3-((4R,Z)-9-amino-4-((4-hydroxybenzyl)carbamoyl)-2,11,16-trioxo-1-phenyl-3,8,10,12,15-pentaazaoctadec-9-en-1-yl)phenoxy)butyl)amino)-1-oxopropan-2-yl)amino)-3-oxopropyl)amino)-2-oxoethyl)-1,4,7,10-tetraazacyclododecane-1,4,7-triyl)triacetic acid] cannot be ordered by Ki: < 10 nM for the first, < 10 nM for the second.

CCC(=O)NCCNC(=O)/N=C(/N)NCCC[C@@H](NC(=O)C(c1ccccc1)c1cccc(OCCCCNC(=O)[C@@H](CO)NC(=O)CCNC(=O)CN2CCN(CC(=O)O)CCN(CC(=O)O)CCN(CC(=O)O)CC2)c1)C(=O)NCc1c(F)cc(O)cc1F (single isomer, unassigned) [Compound 165A] and CCC(=O)NCCNC(=O)/N=C(/N)NCCC[C@@H](NC(=O)C(c1ccccc1)c1cccc(OCCCCNC(=O)C[C@H]2NC(=O)[C@@H](CCCNC(=O)CN3CCN(CC(=O)O)CCN(CC(=O)O)CCN(CC(=O)O)CC3)NC2=O)c1)C(=O)NCc1c(F)cc(O)cc1F (single isomer, unassigned) [Compound 164B] cannot be ordered by Ki: < 10 nM for the first, < 10 nM for the second.

First: CCC(=O)NCCNC(=O)/N=C(/N)NCCC[C@@H](NC(=O)C(c1ccccc1)c1cccc(OCCCCNC(=O)CCC(=O)N(CC(=O)O)C2CCN(C(=O)CN3CCN(CC(=O)O)CCN(CC(=O)O)CCN(CC(=O)O)CC3)CC2)c1)C(=O)NCc1ccc(O)cc1 (single isomer, unassigned) [Compound 117A]
Second: CCC(=O)NCCNC(=O)/N=C(/N)NCCC[C@@H](NC(=O)C(c1ccccc1)c1cccc(OCCCCNC(=O)CN2CCN(C(=O)CN3CCN(CC(=O)O)CCN(CC(=O)O)CCN(CC(=O)O)CC3)CC2)c1)C(=O)NCc1ccc(O)cc1 (single isomer, unassigned) [Compound 118A]
The Ki of the first is higher: 10 to 100 nM for the first, < 10 nM for the second.

CCC(=O)NCCNC(=O)/N=C(/N)NCCC[C@@H](NC(=O)C(c1ccccc1)c1cccc(OCCCCNC(=O)[C@@H](CO)NC(=O)CCNC(=O)CN2CCN(CC(=O)O)CCN(CC(=O)O)CCN(CC(=O)O)CC2)c1)C(=O)NCc1c(F)cc(O)cc1F (single isomer, unassigned) [Compound 165B] and CCC(=O)NCCNC(=O)/N=C(/N)NCCC[C@@H](NC(=O)C(c1ccccc1)c1ccc(NCCNC(=O)[C@H](N)CCCNC(=O)CN2CCN(CC(=O)O)CCN(CC(=O)O)CCN(CC(=O)O)CC2)cc1)C(=O)NCc1ccc(O)cc1 (single isomer, unassigned) [Compound 143B] cannot be ordered by Ki: < 10 nM for the first, < 10 nM for the second.

CCCCCCCCCCCCCCCC(=O)N[C@@H](CCC(=O)N[C@@H](CCCCNC(=O)CN1CCN(CC(=O)O)CCN(CC(=O)O)CCN(CC(=O)O)CC1)C(=O)NCCCCOc1cccc(C(C(=O)N[C@H](CCCN/C(N)=N\C(=O)NCCNC(=O)CC)C(=O)NCc2ccc(O)cc2)c2ccccc2)c1)C(=O)O (stereo partly drawn) [Compound 122, (2S)-4-{[(1S)-1-({4-[3-({[(1R)-4-{[(Z)-amino({[(2-propanamidoethyl)-carbamoyl]imino})methyl]amino}-1-{[(4-hydroxyphenyl)methyl]carbamoyl}butyl]-carbamoyl}(phenyl)methyl)phenoxy]butyl}carbamoyl)-5-{2-[4,7,10-tris(carboxymethyl)-1,4,7,10-tetraazacyclododecan-1-yl]acetamido}pentyl]carbamoyl}-2-hexadecanamidobutanoic acid] and CCC(=O)NCCNC(=O)/N=C(/N)NCCC[C@@H](NC(=O)C(c1ccccc1)c1ccc(NCCNC(=O)[C@H](N)CCCNC(=O)CN2CCN(CC(=O)O)CCN(CC(=O)O)CCN(CC(=O)O)CC2)cc1)C(=O)NCc1ccc(O)cc1 (single isomer, unassigned) [Compound 143A] cannot be ordered by Ki: < 10 nM for the first, < 10 nM for the second.

CCC(=O)NCCNC(=O)/N=C(/N)NCCC[C@@H](NC(=O)C(c1ccccc1)c1cccc(NCCCNc2c(NCCNC(=O)CN3CCN(CC(=O)O)CCN(CC(=O)O)CCN(CC(=O)O)CC3)c(=O)c2=O)c1)C(=O)NCc1ccc(O)cc1 (single isomer, unassigned) [Compound 120B] and CCC(=O)NCCNC(=O)/N=C(/N)NCCC[C@@H](NC(=O)C(c1ccccc1)c1ccc(NCCCNc2c(NCCCCCCNC(=O)CN3CCN(CC(=O)O)CCN(CC(=O)O)CCN(CC(=O)O)CC3)c(=O)c2=O)cc1)C(=O)NCc1ccc(O)cc1 (single isomer, unassigned) [Compound 156] cannot be ordered by Ki: < 10 nM for the first, < 10 nM for the second.

CCNC(=O)/N=C(/N)NCCC[C@@H](NC(=O)C(c1ccccc1)c1cccc(OCCCCNC(=O)[C@@H](Cc2ccc(-c3ccccc3)cc2)NC(=O)[C@@H](CN)NC(=O)CN2CCN(CC(=O)O)CCN(CC(=O)O)CCN(CC(=O)O)CC2)c1)C(=O)NCc1ccc(O)cc1 (single isomer, unassigned) [Compound 148A] was tested, and the Ki was < 10 nM.

Source: US20240226343A1, “NEUROPEPTIDE Y1 RECEPTOR (NPY1R) TARGETED THERAPEUTICS AND USES THEREOF” (RADIONETICS ONCOLOGY, INC., priority 2022, published 2024)
